Each block holds one molecule with its values, some of them ahead of it.
Assays:
[1] = molecular target: T1, Carnitine O-palmitoyltransferase 1, liver isoform (Rattus norvegicus, UniProt P32198); experiment: (§1) Compound was evaluated for its ability to inhibit carnitine palmitoyltransferase I activity in intact mitochondria from rat liver
T1 sequence (P32198 whole entry): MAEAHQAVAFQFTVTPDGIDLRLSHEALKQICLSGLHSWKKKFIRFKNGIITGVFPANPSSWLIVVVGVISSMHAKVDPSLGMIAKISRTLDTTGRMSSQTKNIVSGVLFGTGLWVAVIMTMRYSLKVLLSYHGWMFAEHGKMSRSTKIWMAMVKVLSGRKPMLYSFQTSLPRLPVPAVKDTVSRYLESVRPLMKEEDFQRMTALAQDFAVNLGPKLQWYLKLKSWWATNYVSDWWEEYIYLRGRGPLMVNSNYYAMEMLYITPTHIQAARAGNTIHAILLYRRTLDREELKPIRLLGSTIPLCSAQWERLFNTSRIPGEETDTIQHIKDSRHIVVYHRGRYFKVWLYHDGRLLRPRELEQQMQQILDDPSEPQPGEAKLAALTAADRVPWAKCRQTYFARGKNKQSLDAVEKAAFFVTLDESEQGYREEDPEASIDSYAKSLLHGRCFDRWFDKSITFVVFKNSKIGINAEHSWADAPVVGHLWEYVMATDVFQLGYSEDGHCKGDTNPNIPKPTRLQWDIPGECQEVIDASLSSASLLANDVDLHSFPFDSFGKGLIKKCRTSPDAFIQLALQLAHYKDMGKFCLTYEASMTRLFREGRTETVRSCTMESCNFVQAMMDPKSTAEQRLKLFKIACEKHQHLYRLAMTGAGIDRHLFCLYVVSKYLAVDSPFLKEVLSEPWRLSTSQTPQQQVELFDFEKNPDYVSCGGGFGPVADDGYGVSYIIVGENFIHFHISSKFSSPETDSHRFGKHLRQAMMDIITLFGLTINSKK

[2] = molecular target: T2, Carnitine O-palmitoyltransferase 1, muscle isoform (Rattus norvegicus, UniProt Q63704); experiment: (§2) Compound was evaluated for its ability to inhibit carnitine palmitoyltransferase I activity in intact mitochondria from rat heart
T2 sequence (Q63704 whole entry): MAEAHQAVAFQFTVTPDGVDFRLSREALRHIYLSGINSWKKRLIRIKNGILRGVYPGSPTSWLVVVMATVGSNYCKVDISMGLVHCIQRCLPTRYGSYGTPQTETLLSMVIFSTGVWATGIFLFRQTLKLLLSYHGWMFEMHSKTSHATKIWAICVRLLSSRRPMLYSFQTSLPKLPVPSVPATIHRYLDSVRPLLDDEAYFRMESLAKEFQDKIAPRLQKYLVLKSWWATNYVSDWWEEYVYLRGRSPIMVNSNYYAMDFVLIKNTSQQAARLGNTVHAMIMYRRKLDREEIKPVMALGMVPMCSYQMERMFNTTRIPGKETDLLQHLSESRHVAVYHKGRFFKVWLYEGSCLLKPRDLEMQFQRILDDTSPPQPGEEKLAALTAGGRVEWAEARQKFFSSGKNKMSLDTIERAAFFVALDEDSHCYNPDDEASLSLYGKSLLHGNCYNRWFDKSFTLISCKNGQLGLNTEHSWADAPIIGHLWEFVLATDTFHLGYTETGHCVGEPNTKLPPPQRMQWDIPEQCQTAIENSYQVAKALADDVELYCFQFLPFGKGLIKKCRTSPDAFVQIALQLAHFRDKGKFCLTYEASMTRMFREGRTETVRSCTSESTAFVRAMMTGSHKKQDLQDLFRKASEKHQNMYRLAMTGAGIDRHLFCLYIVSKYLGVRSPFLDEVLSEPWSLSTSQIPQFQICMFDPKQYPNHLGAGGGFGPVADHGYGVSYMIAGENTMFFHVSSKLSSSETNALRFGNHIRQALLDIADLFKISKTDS

[3] = compound: CCCCCCCCCCCCCCC[C@@]1(O)C[N+](C)(C)C[C@@H](CC(=O)[O-])O1; experiment: as §2
[4] = compound: CCCCCCCCCCCCCCC[C@@]1(O)C[N+](C)(C)C[C@@H](CC(=O)[O-])O1; experiment: as §1

- Ki [1]: 4.2 µM
- Ki [2]: 2.8 µM
Molecule: CCCCCCCCCCCCCCC[C@@]1(O)C[N+](C)(C)C[C@@H](CC(=O)[O-])O1 [HEMIACYLCARNITINIUM]

B1: Carnitine O-palmitoyltransferase 1, muscle isoform (Rattus norvegicus), Q63704 (protein)
chain: MAEAHQAVAFQFTVTPDGVDFRLSREALRHIYLSGINSWKKRLIRIKNGILRGVYPGSPTSWLVVVMATVGSNYCKVDISMGLVHCIQRCLPTRYGSYGTPQTETLLSMVIFSTGVWATGIFLFRQTLKLLLSYHGWMFEMHSKTSHATKIWAICVRLLSSRRPMLYSFQTSLPKLPVPSVPATIHRYLDSVRPLLDDEAYFRMESLAKEFQDKIAPRLQKYLVLKSWWATNYVSDWWEEYVYLRGRSPIMVNSNYYAMDFVLIKNTSQQAARLGNTVHAMIMYRRKLDREEIKPVMALGMVPMCSYQMERMFNTTRIPGKETDLLQHLSESRHVAVYHKGRFFKVWLYEGSCLLKPRDLEMQFQRILDDTSPPQPGEEKLAALTAGGRVEWAEARQKFFSSGKNKMSLDTIERAAFFVALDEDSHCYNPDDEASLSLYGKSLLHGNCYNRWFDKSFTLISCKNGQLGLNTEHSWADAPIIGHLWEFVLATDTFHLGYTETGHCVGEPNTKLPPPQRMQWDIPEQCQTAIENSYQVAKALADDVELYCFQFLPFGKGLIKKCRTSPDAFVQIALQLAHFRDKGKFCLTYEASMTRMFREGRTETVRSCTSESTAFVRAMMTGSHKKQDLQDLFRKASEKHQNMYRLAMTGAGIDRHLFCLYIVSKYLGVRSPFLDEVLSEPWSLSTSQIPQFQICMFDPKQYPNHLGAGGGFGPVADHGYGVSYMIAGENTMFFHVSSKLSSSETNALRFGNHIRQALLDIADLFKISKTDS
- Km [3]: 500 µM

B2: Carnitine O-palmitoyltransferase 1, liver isoform (Rattus norvegicus), P32198 (protein)
chain: MAEAHQAVAFQFTVTPDGIDLRLSHEALKQICLSGLHSWKKKFIRFKNGIITGVFPANPSSWLIVVVGVISSMHAKVDPSLGMIAKISRTLDTTGRMSSQTKNIVSGVLFGTGLWVAVIMTMRYSLKVLLSYHGWMFAEHGKMSRSTKIWMAMVKVLSGRKPMLYSFQTSLPRLPVPAVKDTVSRYLESVRPLMKEEDFQRMTALAQDFAVNLGPKLQWYLKLKSWWATNYVSDWWEEYIYLRGRGPLMVNSNYYAMEMLYITPTHIQAARAGNTIHAILLYRRTLDREELKPIRLLGSTIPLCSAQWERLFNTSRIPGEETDTIQHIKDSRHIVVYHRGRYFKVWLYHDGRLLRPRELEQQMQQILDDPSEPQPGEAKLAALTAADRVPWAKCRQTYFARGKNKQSLDAVEKAAFFVTLDESEQGYREEDPEASIDSYAKSLLHGRCFDRWFDKSITFVVFKNSKIGINAEHSWADAPVVGHLWEYVMATDVFQLGYSEDGHCKGDTNPNIPKPTRLQWDIPGECQEVIDASLSSASLLANDVDLHSFPFDSFGKGLIKKCRTSPDAFIQLALQLAHYKDMGKFCLTYEASMTRLFREGRTETVRSCTMESCNFVQAMMDPKSTAEQRLKLFKIACEKHQHLYRLAMTGAGIDRHLFCLYVVSKYLAVDSPFLKEVLSEPWRLSTSQTPQQQVELFDFEKNPDYVSCGGGFGPVADDGYGVSYIIVGENFIHFHISSKFSSPETDSHRFGKHLRQAMMDIITLFGLTINSKK
- Km [4]: 350 µM
